US12312332B2 (Merck Sharp & Dohme LLC., priority 2019, dated 2025)

Molecular target: T1, human OX2R (Homo sapiens, UniProt O43614)
T1 construct: expressed in transfected cells; host or cells: Chinese hamster ovary (CHO) cells, kept under G418 selection
T1 sequence (O43614 1-444): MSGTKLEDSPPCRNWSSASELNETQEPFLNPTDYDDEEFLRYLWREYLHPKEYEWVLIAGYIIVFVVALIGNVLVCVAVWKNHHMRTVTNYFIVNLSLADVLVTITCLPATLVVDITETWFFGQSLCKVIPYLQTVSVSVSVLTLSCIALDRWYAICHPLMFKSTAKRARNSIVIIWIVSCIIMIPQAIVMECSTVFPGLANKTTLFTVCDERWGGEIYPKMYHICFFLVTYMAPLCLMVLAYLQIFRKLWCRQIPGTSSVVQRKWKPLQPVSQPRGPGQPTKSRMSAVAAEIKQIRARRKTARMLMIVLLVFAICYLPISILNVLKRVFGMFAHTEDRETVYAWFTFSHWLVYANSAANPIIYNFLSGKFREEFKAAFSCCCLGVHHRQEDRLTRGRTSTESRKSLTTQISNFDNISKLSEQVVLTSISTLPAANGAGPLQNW
Assay: IPOne (IP-One) orexin receptor agonist assay in CHO cells expressing human OX2R
Format: cell-based
Settings: for EC50: CHO cells expressing human OX2R, IP-One detection, 2 hours incubation, four parameter logistic fit, read-out: OX2R Potency, EC50; for % max agonist effect (Emax): human OX2R, percentage of sample raw value/mean max effect (reference compound at 1 uM with 100% activity)
Excerpt: The utility of the compounds in accordance with the present invention as orexin receptor OX1R and/or OX2R agonists may be readily determined without undue experimentation by methodology well known in the art. Both the OX1R and/or OX2R G-coupled protein receptors (GPCRs) couple through the Gaq signaling pathway, which ultimately promotes calcium mobilization via inositol triphosphate (IP3) production. […] The utility of the compounds in accordance with the present invention as orexin receptor OX1R and/or OX2R agonists may be determined utilizing this assay.
In a typical experiment, the OX1 and OX2 receptor agonist activity is determined in accordance with the following general experimental method. Chinese hamster ovary (CHO) cells expressing human OX1R and/or the human OX2R were grown in Iscove's modified DMEM containing glutaMAX™, 1% G418, 100 U/mL penicillin, 100 μg/mL streptomycin and 10% heat-inactivated qualified fetal bovine serum (FBS). […] During this incubation, IP-one detection reagents were prepared (38:1:1 lysis buffer:D2:AB-cryptate reagents).
For each compound, data were fit to a four parameter logistic fit (ActivityBase software) and the EC50 was reported as the inflection point of the resulting curve. Percent effect for each test compound was determined as the percentage of sample raw value/mean max effect, where the mean max effect was derived from the mean raw value of 32 control wells per assay plate (using Orexin A (cat #003-30) at 1 μM for human OX1R and a reference compound at 1 uM with 100% activity previously established by comparison to Orexin A for human OX2R). The intrinsic orexin receptor agonist activity of a compound which may be used in the present invention may be determined by these assays.

Row | Compound | EC50 | % max agonist effect (Emax)
1 | CS(=O)(=O)N[C@H]1CCN(c2cncc(-c3ccccc3)c2)[C@H]1CO[C@H]1CC[C@@H](c2ccccc2)CC1 (relative stereo) [Example 1, N-((CIS)-2-((((CIS)-4-Phenylcyclohexyl)oxy)methyl)-1-(5-phenylpyridin-3-yl)pyrrolidin-3-yl)methanesulfonamide] | > 10 µM | 35.7%
2 | Cn1cc(N2CC[C@H](NS(C)(=O)=O)[C@@H]2CO[C@H]2CC[C@@H](c3ccccc3)CC2)cn1 (relative stereo) [Example 2, N-((CIS)-1-(1-methyl-1H-pyrazol-4-yl)-2-((((CIS)-4-phenylcyclohexyl)oxy)methyl)pyrrolidin-3-yl)methanesulfonamide] | 0.896 µM | 89.7%
3 | CS(=O)(=O)N[C@H]1CCN(c2ccc(C(F)(F)F)cc2)[C@H]1CO[C@H]1CC[C@@H](c2ccccc2)CC1 (relative stereo) [Example 3, N-((CIS)-2-((((CIS)-4-phenylcyclohexyl)oxy)methyl)-1-(4-(trifluoromethyl)phenyl)pyrrolidin-3-yl)methanesulfonamide] | > 10 µM | 7.9%
4 | CS(=O)(=O)N[C@H]1CCN(c2cncc3ccccc23)[C@H]1CO[C@H]1CC[C@@H](c2ccccc2)CC1 (relative stereo) [Example 4, N-((CIS)-1-(isoquinolin-4-yl)-2-((((CIS)-4-phenylcyclohexyl)oxy)methyl)pyrrolidin-3-yl)methanesulfonamide] | 1.07 µM | 97.3%
5 | Cn1cnc(N2CC[C@H](NS(C)(=O)=O)[C@@H]2CO[C@H]2CC[C@@H](c3ccccc3)CC2)n1 (relative stereo) [Example 5, N-((CIS)-1-(1-methyl-1H-1,2,4-triazol-3-yl)-2-((((CIS)-4-phenylcyclohexyl)oxy)methyl)pyrrolidin-3-yl)methanesulfonamide] | 5.96 µM | 80.4%
6 | COc1ccc(N2CC[C@H](NS(C)(=O)=O)[C@@H]2CO[C@H]2CC[C@@H](c3ccccc3)CC2)cc1 (relative stereo) [Example 6, N-((CIS)-1-(4-methoxyphenyl)-2-((((CIS)-4-phenylcyclohexyl)oxy)methyl)pyrrolidin-3-yl)methanesulfonamide] | 9.22 µM | 25.1%
7 | Cc1ncc(N2CC[C@H](NS(C)(=O)=O)[C@@H]2CO[C@H]2CC[C@@H](c3ccccc3)CC2)s1 (relative stereo) [Example 9, N-((CIS)-1-(2-methylthiazol-5-yl)-2-((((CIS)-4-phenylcyclohexyl)oxy)methyl)pyrrolidin-3-yl)methanesulfonamide] | 1.9 µM | 92.1%
8 | Cc1nc(-c2ccccc2)sc1N1CC[C@H](NS(C)(=O)=O)[C@@H]1CO[C@H]1CC[C@@H](c2ccccc2)CC1 (relative stereo) [Example 11, N-((CIS)-1-(4-methyl-2-phenylthiazol-5-yl)-2-((((CIS)-4-phenylcyclohexyl)oxy)methyl)pyrrolidin-3-yl)methanesulfonamide] | 3.45 µM | 87.7%
9 | Cc1nnc(-c2ccc(N3CC[C@H](NS(C)(=O)=O)[C@@H]3CO[C@H]3CC[C@@H](c4ccccc4)CC3)cc2)o1 (relative stereo) [Example 12, N-((CIS)-1-(4-(5-methyl-1,3,4-oxadiazol-2-yl)phenyl)-2-((((CIS)-4-phenylcyclohexyl)oxy)methyl)pyrrolidin-3-yl)methanesulfonamide] | 10.5 µM | 68.8%
10 | CS(=O)(=O)N[C@H]1CCN(c2csc(-c3ccncc3)n2)[C@H]1CO[C@H]1CC[C@@H](c2ccccc2)CC1 (relative stereo) [Example 13, N-((CIS)-2-((((CIS)-4-phenylcyclohexyl)oxy)methyl)-1-(2-(pyridin-4-yl)thiazol-4-yl)pyrrolidin-3-yl)methanesulfonamide] | 1.72 µM | 83.9%
11 | Cn1cnc(N2CC[C@H](NS(C)(=O)=O)[C@@H]2CO[C@H]2CC[C@@H](c3ccccc3)CC2)n1 [Example 14, N-((2R,3S)-1-(1-Methyl-1H-1,2,4-triazol-3-yl)-2-((((CIS)-4-phenylcyclohexyl)oxy)methyl)-pyrrolidin-3-yl)methanesulfonamide] | 3.72 µM | 87.9%
12 | CS(=O)(=O)N[C@H]1CCN(c2ccns2)[C@H]1CO[C@H]1CC[C@@H](c2ccccc2)CC1 [Example 18, N-((2R,3S)-1-(isothiazol-5-yl)-2-((((CIS)-4-phenylcyclohexyl)oxy)methyl)pyrrolidin-3-yl)methanesulfonamide] | 2.91 µM | 87.4%

Stronger by EC50, values ahead:

Row | EC50 | % max agonist effect (Emax) | Compound
13 | 0.347 µM | 99.8% | CS(=O)(=O)N[C@H]1CCN(c2ccsc2)[C@H]1CO[C@H]1CC[C@@H](c2ccccc2)CC1 [Example 19, N-((2R,3S)-2-((((CIS)-4-phenylcyclohexyl)oxy)methyl)-1-(thiophen-3-yl)pyrrolidin-3-yl)methanesulfonamide]
14 | 0.242 µM | 99.6% | Cc1nnc(N2CC[C@H](NS(C)(=O)=O)[C@@H]2CO[C@H]2CC[C@@H](c3ccccc3)CC2)s1 (relative stereo) [Example 10, N-((CIS)-1-(5-methyl-1,3,4-thiadiazol-2-yl)-2-((((CIS)-4-phenylcyclohexyl)oxy)methyl)pyrrolidin-3-yl)methanesulfonamide]
15 | 0.174 µM | 101.3% | CS(=O)(=O)N[C@H]1CCN(c2ccccn2)[C@H]1CO[C@H]1CC[C@@H](c2ccccc2)CC1 [Example 16, N-((2R,3S)-2-((((CIS)-4-phenylcyclohexyl)oxy)methyl)-1-(pyridin-2-yl)pyrrolidin-3-yl)methanesulfonamide]
16 | 0.152 µM | 101.2% | Cn1cc(N2CC[C@H](NS(C)(=O)=O)[C@@H]2CO[C@H]2CC[C@@H](c3ccccc3)CC2)nn1 (relative stereo) [Example 8, N-((CIS)-1-(1-methyl-1H-1,2,3-triazol-4-yl)-2-((((CIS)-4-phenylcyclohexyl)oxy)methyl)pyrrolidin-3-yl)methanesulfonamide]
17 | 0.102 µM | 100.4% | CS(=O)(=O)N[C@H]1CCN(c2ccon2)[C@H]1CO[C@H]1CC[C@@H](c2ccccc2)CC1 [Example 17, N-((2R,3S)-1-(isoxazol-3-yl)-2-((((CIS)-4-phenylcyclohexyl)oxy)methyl)pyrrolidin-3-yl)methanesulfonamide]
18 | 0.0905 µM | 100.1% | CS(=O)(=O)N[C@H]1CCN(c2cnc3cc[nH]c3c2)[C@H]1CO[C@H]1CC[C@@H](c2ccccc2)CC1 (relative stereo) [Example 7, N-((CIS)-2-((((CIS)-4-phenylcyclohexyl)oxy)methyl)-1-(1H-pyrrolo[3,2-b]pyridin-6-yl)pyrrolidin-3-yl)methanesulfonamide]
19 | 0.0337 µM | 101.6% | Cn1ncnc1N1CC[C@H](NS(C)(=O)=O)[C@@H]1CO[C@H]1CC[C@@H](c2ccccc2)CC1 [Example 15, N-((2R,3S)-1-(1-methyl-1H-1,2,4-triazol-5-yl)-2-((((CIS)-4-phenylcyclohexyl)oxy)methyl)pyrrolidin-3-yl)methanesulfonamide]
